Data as given in ChEMBL document CHEMBL3507680, “University of Dundee, Gates Library screen for HepG2 cell viability”.

Experiment: Human HepG2 cell viability assay in 384 well format
Assay type: toxicity, cell-based
Set-up: dose 125 nL, time 70.5 hour; concentration not given beside the values
Settings: HepG2 cells, read-out: Inhibition

| Structure (SMILES) | cytotoxicity at 70.5 h |
| --- | --- |
| CN(Cc1ccc(Br)s1)Cn1nc(-c2ccc(F)cc2)oc1=O | -4.35% |
| Nc1nccc(C2CCN(CC3CC3)C2)n1 (stereo not drawn) | 17.6% |
| CCN1CCC(N2CCN(C)C3(CCC(=O)N(CCOC)CC3)C2)CC1 (stereo not drawn) | -9.42% |
| CCc1cc(N2CCC(N[C@@H]3CS(=O)(=O)C[C@H]3O)CC2)nc(N(C)C)n1 | 0.303% |
| COCCc1noc(CN2CCCC2Cn2nc(C)cc2C)n1 (stereo not drawn) | 1.57% |
| CCNc1ccnc(N2Cc3cnn(Cc4ccc(F)cc4)c3C2)n1 | -4% |
| Cc1cc(CN2CCc3nc(C)n(C)c(=O)c3CC2)[nH]n1 | -5.95% |
| Cc1nn2cccnc2c1C(=O)N1CCCC(n2ccnc2)C1 (stereo not drawn) | -4.78% |
| CC(c1cccs1)N(C)C(=O)c1cc(CN(C)Cc2ccccc2)on1 (stereo not drawn) | -4.76% |
| CC1CCCCN1C(=O)Cn1cnc(C#N)n1 (stereo not drawn) | -6.77% |
| Cn1c(Cn2cccn2)nnc1C1CCCN(c2ccncc2F)C1 (stereo not drawn) | 3.69% |
| Cc1[nH]c2ccccc2c1-c1ccnc(NCCN2CCOCC2)n1 | 25.2% |
| Cn1cnc2c(N3CCOCC3)nc(C3CCNCC3)cc21 | -1.78% |
| Cc1ccc(N2N=C(C(=O)NCC3CC3)S(=O)(=O)c3cccnc32)cc1 | -8.14% |
| CN(C)c1ccc(C(=O)N2CCCC2c2cnn(C)c2)cn1 (stereo not drawn) | -2.8% |
| Cc1[nH]c2c(C)ccc(C)c2c1CC(=O)NCCNc1cccnc1 | 27% |
| Cc1nc(C)c(CC(=O)N2C[C@@H]3CC[C@H](C2)N(CC2CCC2)C3)c(=O)[nH]1 | -6.37% |
| Cc1noc([C@@H]2CCO[C@@H]3CCN(Cc4nccs4)C[C@@H]32)n1 | 9.78% |
| COc1cc(CN(C)C(=O)Cc2c(C)nn(C)c2C)ccc1OC(F)F | 3.07% |
| O=S(=O)(c1cccs1)N1CCN(Cc2nc(-c3ccco3)cs2)CC1 | 1.85% |
| COCCN(Cc1ccc(F)cc1Cl)C(=O)c1cccc[n+]1[O-] | -0.551% |
| O=C(NCC(=O)N1CCN(c2ccccc2)CC1)c1sccc1C1CC1 | -2.46% |
| CS(=O)(=O)CCCSCc1cc(F)cc(Br)c1 | -4.67% |

| Structure (SMILES) | cytotoxicity at 70.5 h |
| --- | --- |
| COCCO[C@H]1CCN(C(=O)c2cccnc2)[C@H]1Cc1cnn(C)c1 | -96.2% |
| COc1cccn(CC(=O)N(C)CCC2CCOCC2)c1=O | 25% |
| O=C(NCc1ccnc(OCC(F)(F)F)c1)NCC1CCCO1 (stereo not drawn) | 0.67% |
| Cc1ccc(-c2ccnc(N3CCC4(CCO4)CC3)n2)c(C)n1 | -6.98% |
| CNc1nc2c(c(C(=O)N3CCCC3)n1)CN(C(=O)c1cccs1)CC2 | 5.33% |
| O=C(O)CN(Cc1ccsc1)CC1CCCO1 (stereo not drawn) | -2.27% |
| COc1cccc(-c2noc(-c3ccc(NCC(C)O)nc3)n2)c1OC (stereo not drawn) | -0.152% |
| CC(C)=CCN1C(=O)[C@H]2CC[C@@H]1CN(C(=O)CCc1nc(Cl)n[nH]1)C2 | -14.8% |
| CCC[C@@H]1CN(C(=O)c2c(F)ccc(OC)c2F)C[C@H]1C(=O)O | -0.545% |
| CN(C)C(=O)CS(=O)(=O)Cc1ccn(-c2cccc(F)c2)n1 | -3.31% |
| Nc1cccnc1N1CCC(O)CC1 | -1.82% |
| Cc1nnc([C@@H]2C[C@H]3CN(C(=O)c4c(C)noc4C)C[C@H]3O2)[nH]1 | -11.6% |
| CN(C)C(=O)N1CCCC(C(=O)N(C)Cc2cnc(N)nc2)C1 (stereo not drawn) | -10.7% |
| CS(=O)(=O)CCC(=O)NC(Cc1ccccc1)C1CC1 (stereo not drawn) | -4.37% |
| CN(C)C(=O)N1CCC2(CC1)CN(Cc1ccccn1)C(=O)CO2 | 24.4% |
| Cc1nc(C2CN(C)CCO2)cc(N2CCSCC2)n1 (stereo not drawn) | 26.1% |
| Cc1cc(NC(=O)CN2CCOC(Cn3nc(C)cc3C)C2)n(C)n1 (stereo not drawn) | -8.28% |
| COCCC(=O)N1CCC2(CC1)CN(C(C)=O)Cc1ccccc1O2 | 0.622% |
| CN(C)CCN1CCC2(CCN(C(=O)c3cccc(F)c3)CC2)C1=O | 15.4% |
| CCOc1nnc(CN2CCC(c3cc4ccccc4[nH]3)CC2)s1 | -5.08% |
| N#Cc1cccc(N2CCC(CO)(CCOc3ccccc3)CC2)n1 | -4.29% |
| Cc1cc(-c2ccc(=O)n(C3CCN(S(C)(=O)=O)CC3)n2)c(C)o1 | 17.2% |
| CCC(O)CN1CCN(C(=O)CCc2c(C)noc2Cl)CC1 (stereo not drawn) | -12.7% |

| Structure (SMILES) | cytotoxicity at 70.5 h |
| --- | --- |
| CNC(=O)Cc1ccccc1NC(=O)NCc1ccc(SC)cc1 | 19.8% |
| CC(C)(C)c1noc(CCCC(=O)N2CCCC(c3ccn[nH]3)C2)n1 (stereo not drawn) | -2.4% |
| CCS(=O)(=O)CCN1CCCC1c1noc(C)n1 (stereo not drawn) | -8.31% |
| CC(C)NC(=O)NCc1ccnc(N(C)C)n1 | -6.75% |
| N#CC1(C(=O)Nc2ccc(OC(F)F)cc2)CCCC1 | 8% |
| COc1cc(CNCc2ccc(NC(=O)NC(C)C)cc2)cc(OC)c1 | 2.03% |
| COC(=O)c1oc(CNC(C)(C)CO)cc1C | -5.24% |
| CN1CC(=O)N(c2ccccc2)CC12CCN(C(=O)CC1CC1)C2 (stereo not drawn) | 8.17% |
| CNC(=O)N1CCC2(CC1)c1ncc(C)n1CCN2C | -0.582% |
| NC(=O)C1CCN(Cc2csc(-c3ncccn3)n2)CC1 | 18.7% |
| CN1CCN(C2COC3(CCN(Cc4cccs4)CC3)C2)CC1 (stereo not drawn) | 4.27% |
| c1ccc(-c2ccc(C3CNCCO3)nc2)cc1 (stereo not drawn) | -19.9% |
| CC1CN(C)c2ccccc2CN1C(=O)c1cscn1 (stereo not drawn) | -5.75% |
| Cc1nc(C(C)NC(=O)c2cn(C/C=C/c3ccccc3)nn2)n[nH]1 (stereo not drawn) | -13.1% |
| Cc1cnn(CC2CCCCN2C(=O)c2cnc3n[nH]c(C)c3c2)c1 (stereo not drawn) | -4.13% |
| Cc1nc(CNC(=O)NCC(O)c2ccc(F)c(F)c2)cs1 (stereo not drawn) | 1.43% |
| CN(C)c1cc(C2CCCN2Cc2ccccc2OCC(=O)O)ccn1 (stereo not drawn) | -6.83% |
| COCCN1CCO[C@@H]2CN(S(=O)(=O)c3cccnc3)C[C@@H]2C1 | 3.84% |
| CC(C#N)NS(=O)(=O)c1cccc(C(C)C)c1 (stereo not drawn) | -15.4% |
| O=C(Nc1ccc(N2CCCCC2)cn1)C1CCCN1C(=O)C1CC1 (stereo not drawn) | -4.38% |
| O=C(NC1CC1)c1cc2c(s1)CCN2C(=O)C1CC1 | -7.29% |
| Cc1cccc(C)c1Oc1ncccc1CNC(=O)C1(C)CCCNC1 (stereo not drawn) | -7.62% |
| CN1CCCC2(CCN(C(=O)Cn3ncc4ccccc4c3=O)C2)C1=O (stereo not drawn) | 9.09% |

| Structure (SMILES) | cytotoxicity at 70.5 h |
| --- | --- |
| COc1nc(C)ccc1CNC(=O)NC(C)(C)c1ncc(C)s1 | -5.61% |
| CCn1nnc(NCc2ccccc2OCc2ccc(Cl)cc2)n1 | -7.27% |
| Cc1ccc(C(=O)N2C[C@@H]3CCCO[C@@H]3[C@H](N3CCCC3)C2)cn1 | 0.948% |
| Cn1nc(C2CCCN(Cc3ccsc3)C2)c2nccnc21 (stereo not drawn) | -0.972% |
| Cc1nc(CN(C)c2cc(N3CCCC3CO)ncn2)cs1 (stereo not drawn) | -3.26% |
| Cc1nnc2ccc(N3CCN(CCc4ccccn4)CC3)nn12 | -0.337% |
| FC1(F)CCN(Cc2ccncc2)CC12CCN(c1cnccn1)C2 (stereo not drawn) | -8.66% |
| O=c1ccc(-n2ccnc2)nn1CCNS(=O)(=O)c1ccc(F)c(Cl)c1 | -1.07% |
| Cc1oc(-c2ccoc2)nc1CN1CCC[C@H]1CO | -3.95% |
| Cc1nc(C2CCCNC2)cc(N(C)CCc2ccccc2)n1 (stereo not drawn) | 20.6% |
| CC(C)(O)CNC(=O)NCc1nccn1CCc1ccccc1 | -1.1% |
| Cc1cnc(CNC(=O)C2CCOc3ccccc3C2)cn1 (stereo not drawn) | -19.3% |
| COc1ncnc2c1CCN(c1cccc(F)c1)CC2 | -6.07% |
| CC(CNS(=O)(=O)c1cccc(Cl)c1)N1CCN(C)CC1 (stereo not drawn) | -5.03% |
| OCC(O)CSCc1cc(Cl)ccc1Cl (stereo not drawn) | -3.91% |
| CC(C)(C)c1cnc(CN2CCC(NC(=O)C3CCOCC3)CC2)o1 | -5% |
| O=c1cc(CN2CCCC2)nc2n1CCCN(Cc1ccoc1)C2 | 1.82% |
| COc1ccccc1CN1CCC2(CCC(C(=O)N(C)C)O2)CC1 (stereo not drawn) | -8.03% |
| CC(C)c1ccc(CC(=O)N2CCCC3(CN(C)C(=O)O3)C2)cc1 (stereo not drawn) | 22.5% |
| CC(C)=CCCC1(C)CCC(=O)N(CCc2csc(N)n2)C1 (stereo not drawn) | -5.28% |
| O=C(NCCn1nc2ccccn2c1=O)c1sccc1-c1ccccc1 | -5.5% |
| Cc1noc(-c2ccnc(N3CCCN(C4CCOCC4)CC3)c2)n1 | -3.75% |
| Cc1nccn1C1CCCN(C(=O)COC2CCCC2)C1 (stereo not drawn) | -4.55% |

| Structure (SMILES) | cytotoxicity at 70.5 h |
| --- | --- |
| Cc1cc(C)c(CNC(=O)CCC2CCCO2)c(=O)[nH]1 (stereo not drawn) | -6.31% |
| CCCn1c(C)c(CC(=O)NCCNC(C)=O)c2c1CC(C)(C)CC2=O | 1.34% |
| CCCC(NC(=O)c1cc(C2CC2)[nH]n1)c1nnc2ccccn12 (stereo not drawn) | -12.1% |
| COCCN1C(=O)CC[C@]12CC[C@@H](NCc1cccnc1OC)CC2 | -2.58% |
| Cc1noc(CN2CC=C(c3c[nH]c4ncccc34)CC2)n1 | 20.4% |
| Cn1c(N)nnc1SCc1c(F)cccc1Br | -3.61% |
| CCC(=O)N1CCC(NCc2cc(C(F)(F)F)ccc2Cl)C1 (stereo not drawn) | -4.4% |
| O=C(NCc1ccccc1)C1CN(c2ccccn2)CCO1 (stereo not drawn) | -15.5% |
| CCS(=O)(=O)N1CCCC2(COCCN(c3ccccn3)C2)C1 (stereo not drawn) | -18.6% |
| COCCN1CCC(CNC(=O)C2(c3ccccc3)CCOCC2)C1 (stereo not drawn) | -4.78% |
| Cc1cc(NCc2ccc(C#N)cc2)n2nc(C)cc2n1 | -4.7% |
| Cc1ccn(CCNC(=O)C2(C)CC(c3ccccc3)=NO2)n1 (stereo not drawn) | -1.48% |
| O=C(O)c1ccc(S(=O)(=O)Nc2ccccc2CC(F)(F)F)c(F)c1 | -15.6% |
| CC(=O)N1CCn2c(COCc3csc(C)n3)cnc2C1C (stereo not drawn) | -20.1% |
| Cc1cnn(CC2CN(Cc3nc(-c4ccsc4)no3)CCO2)c1 (stereo not drawn) | -14.2% |
| O=C(NC1CC1)[C@H]1C[C@H]2OCC[C@H]2N(Cc2cccc3ccccc23)C1 | -0.842% |
| CC(C)COC(=O)N1CC(=O)N(Cc2ccco2)CC(O)C1 (stereo not drawn) | -3.84% |
| CC1(C(=O)NCc2ccsc2)CCOCC1 | -8.16% |
| O=C(C1CCOC1)N1CCC2(CC1)CN(c1ncccn1)CCO2 (stereo not drawn) | 22.2% |
| O=C1CCCN1CC1CN(C(=O)N2CCOCC2)Cc2nccn2C1 (stereo not drawn) | -2.04% |
| O=C(NCCn1nc2ccccn2c1=O)c1cc(-c2ccccc2)[nH]n1 | -5.05% |
